Values quoted from earlier work in patent US7122567B2, “Heterocyclic amide derivatives having glycogen phosphorylase inhibitory activity” (AstraZeneca AB, priority 2002, dated 2006).

Tests used:
[1] = conscious dogs, following a glucagon challenge
[2] = tested on: hepatocytes
[3] = db/db and ob/ob mice following treatment

CCN1C(C)=C(C(=O)OC(C)C)C(c2ccccc2Cl)C2=C1COC2=O (centres unmarked) [Bay R 3401]
arterial plasma glucose [1]: reduced significantly | hepatic glucose output [1]: reduced significantly

CN(C)C(=O)[C@H](O)[C@H](Cc1ccccc1)NC(=O)c1cc2cc(Cl)ccc2[nH]1 [CP91149]
glucagon stimulated glycogenolysis [2]: reduce | glucose output [2]: reduce | plasma glucose concentration [3]: reduced, in a dose related manner

O=C(N[C@@H](Cc1ccc(F)cc1)C(=O)N1CCC(O)CC1)c1cc2cc(Cl)ccc2[nH]1 [CP320626]
glucagon stimulated glycogenolysis [2]: reduce | glucose output [2]: reduce | plasma glucose concentration [3]: reduced, in a dose related manner
